In US8895551B2, “Acrylamide compounds and the use thereof” (Shionogi & Co., Ltd., priority 2009, dated 2014):
pIC50: −log10 of the molar value.

Target: T1, N-type calcium channel (NTCC) (Homo sapiens, UniProt Q00975)
T1 construct: host or cells: IMR32 cells differentiated with dibutyryl cyclic AMP and bromodeoxyuridine
Experiment: FLIPR calcium mobilization assay for N-type calcium channel
Format: cell-based
Settings: N-type calcium channel (NTCC) blockers after a calcium mobilization in vitro assay; differentiated IMR32 cells
Procedure: Cell maintenance and differentiation. Unless noted otherwise, cell culture reagents were purchased from Mediatech of Herndon, Md. IMR32 cells (American Type Culture Collection, ATCC, Manassas, Va.) were routinely cultured in growth medium consisting of minimum essential medium containing 10% fetal bovine serum (FBS, Hyclone, Logan, Utah), 100 U/mL penicillin, 100 μg/mL streptomycin, 2 mM L-glutamine, 1 mM sodium pyruvate, and 1×MEM non-essential amino acids. 80-90% confluent flasks of cells were differentiated using the following differentiation medium: Growth medium plus 1 mM dibutyryl cyclic AMP (Sigma, St. Louis, Mo.), and 2.5 μM bromodeoxyuridine (Sigma). Cells were differentiated for 8 days by replacing differentiation medium every 2-3 days.
FLIPR Calcium Mobilization Assay for N-type Calcium Channel. One day prior to performing this assay, differentiated IMR32 cells were treated with 1× CellStripper, and seeded on poly-D-lysine-coated 96-well clear-bottom black plates (Becton Dickinson, Franklin Lakes, N.J.) at 200,000 cells/well. On the day of the assay, the cell plates were washed with IMR32 buffer (127 mM NaCl, 1 mM KCl, 2 mM MgCl2, 700 μM NaH2PO4, 5 mM CaCl2, 5 mM NaHCO3, 8 mM HEPES, 10 mM glucose, pH 7.4), then pre-stimulated with KCl and loaded as follows: 0.05 mL of IMR^32 buffer, 0.05 mL of each compound tested diluted in IMR^32 buffer containing 20 μM nitrendipine (Sigma), and 0.1 mL KCl dissolved in IMR^32 buffer, plus Fluo-4 were added (3 μM final concentration, Molecular Probes, Eugene, Oreg.). Final test compound concentrations ranged from about 846 μM to about 17 μM, final nitrendipine concentration was 5 μM, and final KCl concentration was 90 mM. After 1 hour, the cells were washed twice with 0.05 mL of each compound tested in nitrendipine-containing IMR32 buffer (no KCl or Fluo-4), and then replaced with 0.1 mL of each compound tested in nitrendipine-containing IMR^32 buffer. Plates were then transferred to a Fluorimetric Imaging Plate Reader (FLIPR^96, Molecular Devices, Inc., Sunnyvale, Calif.) for assay. The FLIPR measured basal Fluo-4 fluorescence for 315 seconds (i.e., 5 minutes and 15 seconds), then added 0.1 mL KCl agonist dissolved in IMR32 buffer and measured fluorescence for another 45 seconds. Final test compound concentrations on the cells after FLIPR read ranged from about 846 μM to about 17 μM, final nitrendipine concentration was 5 μM, and final KCl concentration was 90 mM. Data were collected over the entire time course and analyzed using Excel, Graph Pad Prism (version 3.02, Graph Pad, San Diego, Calif.), or an in-house non-linear regression analysis software.

T1 sequence (Q00975 whole entry): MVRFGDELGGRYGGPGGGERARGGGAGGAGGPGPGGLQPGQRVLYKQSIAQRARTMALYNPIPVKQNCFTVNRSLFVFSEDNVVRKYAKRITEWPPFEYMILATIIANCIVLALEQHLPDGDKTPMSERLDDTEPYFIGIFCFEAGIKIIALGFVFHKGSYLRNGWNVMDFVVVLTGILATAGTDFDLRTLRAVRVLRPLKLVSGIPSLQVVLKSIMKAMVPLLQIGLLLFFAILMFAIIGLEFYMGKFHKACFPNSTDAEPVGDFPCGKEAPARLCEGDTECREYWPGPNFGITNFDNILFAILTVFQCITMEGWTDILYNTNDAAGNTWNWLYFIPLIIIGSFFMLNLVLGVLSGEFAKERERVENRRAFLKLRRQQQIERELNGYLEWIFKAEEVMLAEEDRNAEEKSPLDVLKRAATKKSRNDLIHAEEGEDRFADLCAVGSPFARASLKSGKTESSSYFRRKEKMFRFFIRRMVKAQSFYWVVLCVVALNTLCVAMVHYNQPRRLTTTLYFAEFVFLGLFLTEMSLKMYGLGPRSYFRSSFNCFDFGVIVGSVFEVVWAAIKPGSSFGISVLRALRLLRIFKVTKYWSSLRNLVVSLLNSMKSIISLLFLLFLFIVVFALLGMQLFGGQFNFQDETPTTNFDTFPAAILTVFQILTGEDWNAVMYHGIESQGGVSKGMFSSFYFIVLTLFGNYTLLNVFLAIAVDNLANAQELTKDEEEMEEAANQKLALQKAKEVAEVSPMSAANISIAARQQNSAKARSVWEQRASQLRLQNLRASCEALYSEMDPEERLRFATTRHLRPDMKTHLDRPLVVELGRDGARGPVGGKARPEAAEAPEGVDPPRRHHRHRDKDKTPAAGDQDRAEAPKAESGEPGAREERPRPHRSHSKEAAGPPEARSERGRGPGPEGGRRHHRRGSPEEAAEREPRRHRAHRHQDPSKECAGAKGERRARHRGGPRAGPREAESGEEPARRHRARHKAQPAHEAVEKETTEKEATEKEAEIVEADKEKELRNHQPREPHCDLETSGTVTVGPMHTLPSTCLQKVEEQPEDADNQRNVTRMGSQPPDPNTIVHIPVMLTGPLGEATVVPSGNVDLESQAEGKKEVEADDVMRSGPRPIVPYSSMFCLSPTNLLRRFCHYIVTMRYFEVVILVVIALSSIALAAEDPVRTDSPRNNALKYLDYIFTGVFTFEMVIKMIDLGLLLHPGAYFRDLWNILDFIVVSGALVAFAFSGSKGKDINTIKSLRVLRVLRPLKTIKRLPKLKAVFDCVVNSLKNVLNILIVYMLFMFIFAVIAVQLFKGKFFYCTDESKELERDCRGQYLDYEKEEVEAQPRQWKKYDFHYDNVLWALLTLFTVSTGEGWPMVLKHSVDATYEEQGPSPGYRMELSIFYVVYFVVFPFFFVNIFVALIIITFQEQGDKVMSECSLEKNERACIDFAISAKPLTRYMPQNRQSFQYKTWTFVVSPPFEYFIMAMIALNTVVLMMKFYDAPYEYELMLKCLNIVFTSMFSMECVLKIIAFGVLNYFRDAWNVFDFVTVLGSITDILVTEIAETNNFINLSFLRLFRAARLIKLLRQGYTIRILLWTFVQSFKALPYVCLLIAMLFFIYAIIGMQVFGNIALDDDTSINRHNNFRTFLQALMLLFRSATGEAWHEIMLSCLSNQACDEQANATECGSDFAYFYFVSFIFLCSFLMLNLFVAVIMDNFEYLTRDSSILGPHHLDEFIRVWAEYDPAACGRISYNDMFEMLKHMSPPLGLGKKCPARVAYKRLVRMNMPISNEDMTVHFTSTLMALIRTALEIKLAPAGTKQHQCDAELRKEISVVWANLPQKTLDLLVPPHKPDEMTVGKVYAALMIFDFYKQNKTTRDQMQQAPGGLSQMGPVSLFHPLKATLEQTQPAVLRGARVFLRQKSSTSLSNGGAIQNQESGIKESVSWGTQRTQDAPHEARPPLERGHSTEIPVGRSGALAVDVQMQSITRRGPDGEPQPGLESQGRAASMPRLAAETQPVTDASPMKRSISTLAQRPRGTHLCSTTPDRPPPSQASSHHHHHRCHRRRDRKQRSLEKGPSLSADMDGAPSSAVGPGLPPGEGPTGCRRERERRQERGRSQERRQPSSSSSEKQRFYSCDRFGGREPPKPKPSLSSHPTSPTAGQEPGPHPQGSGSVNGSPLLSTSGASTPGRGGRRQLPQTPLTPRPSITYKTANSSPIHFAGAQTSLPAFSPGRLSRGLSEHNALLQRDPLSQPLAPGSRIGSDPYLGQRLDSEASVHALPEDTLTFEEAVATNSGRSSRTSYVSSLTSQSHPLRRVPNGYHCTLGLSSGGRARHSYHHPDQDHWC
T1 sequence (P54289 25-956 partner limits assumed): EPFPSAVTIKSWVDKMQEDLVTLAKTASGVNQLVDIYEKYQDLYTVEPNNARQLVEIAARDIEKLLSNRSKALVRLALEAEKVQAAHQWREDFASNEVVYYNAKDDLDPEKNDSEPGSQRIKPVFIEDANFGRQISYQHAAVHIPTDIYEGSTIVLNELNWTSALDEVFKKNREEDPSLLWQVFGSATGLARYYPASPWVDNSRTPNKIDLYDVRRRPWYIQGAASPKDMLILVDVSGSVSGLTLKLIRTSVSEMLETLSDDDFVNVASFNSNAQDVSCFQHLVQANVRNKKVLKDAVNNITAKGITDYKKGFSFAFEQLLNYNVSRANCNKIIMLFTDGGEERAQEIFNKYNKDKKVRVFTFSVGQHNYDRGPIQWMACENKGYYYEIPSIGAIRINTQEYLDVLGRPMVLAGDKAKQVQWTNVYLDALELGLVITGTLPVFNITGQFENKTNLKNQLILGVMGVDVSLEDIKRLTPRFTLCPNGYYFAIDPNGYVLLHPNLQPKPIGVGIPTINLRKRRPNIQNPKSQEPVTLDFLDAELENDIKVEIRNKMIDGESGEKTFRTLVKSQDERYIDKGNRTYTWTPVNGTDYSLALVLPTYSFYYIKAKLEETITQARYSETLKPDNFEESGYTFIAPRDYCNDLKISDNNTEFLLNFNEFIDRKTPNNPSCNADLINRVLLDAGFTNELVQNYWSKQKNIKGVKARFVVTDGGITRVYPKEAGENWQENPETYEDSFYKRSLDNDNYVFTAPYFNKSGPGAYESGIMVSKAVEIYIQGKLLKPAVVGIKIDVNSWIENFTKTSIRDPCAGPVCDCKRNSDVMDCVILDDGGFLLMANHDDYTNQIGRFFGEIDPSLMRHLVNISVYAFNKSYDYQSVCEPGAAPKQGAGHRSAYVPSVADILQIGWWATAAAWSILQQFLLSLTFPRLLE
T1 sequence (P54289 957-1103 partner limits assumed): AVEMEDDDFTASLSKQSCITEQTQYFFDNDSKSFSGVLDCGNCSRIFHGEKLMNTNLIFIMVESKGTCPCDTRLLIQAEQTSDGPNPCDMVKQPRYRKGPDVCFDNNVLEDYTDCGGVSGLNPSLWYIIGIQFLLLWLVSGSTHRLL
T1 sequence (P54284 whole entry partner): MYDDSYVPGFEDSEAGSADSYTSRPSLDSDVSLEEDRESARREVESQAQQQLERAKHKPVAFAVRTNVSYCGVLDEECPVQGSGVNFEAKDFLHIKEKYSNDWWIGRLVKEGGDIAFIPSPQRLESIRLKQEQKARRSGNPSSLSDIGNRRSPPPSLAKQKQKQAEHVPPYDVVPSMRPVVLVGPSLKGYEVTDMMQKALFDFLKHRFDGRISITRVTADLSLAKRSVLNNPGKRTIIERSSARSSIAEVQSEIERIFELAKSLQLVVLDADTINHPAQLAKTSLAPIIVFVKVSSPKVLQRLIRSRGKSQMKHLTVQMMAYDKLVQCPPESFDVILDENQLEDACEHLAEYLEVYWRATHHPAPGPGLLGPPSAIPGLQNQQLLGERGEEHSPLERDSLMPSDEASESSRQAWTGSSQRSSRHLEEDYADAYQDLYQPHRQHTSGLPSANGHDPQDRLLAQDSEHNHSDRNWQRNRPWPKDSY

O=C(C=C1CCN(S(=O)(=O)c2ccc(OC(F)(F)F)cc2)CC1)NCc1ccc(F)cc1 [Example 9, N-(4-fluorobenzyl)-2-(1-(4-(trifluoromethoxy)phenylsulfonyl)piperidin-4-ylidene)Acetamide]
pIC50: 6.94

CO/C(=C\C1CCN(S(=O)(=O)c2ccc(OC(F)(F)F)cc2)CC1)C(=O)NC1CC1 [Example 37, (Z)—N-cyclopropyl-2-methoxy-3-(1-(4-(trifluoromethoxy)phenylsulfonyl)piperidin-4-yl)acrylamide]
pIC50: 6.26

O=C(/C=C1\CCCN(S(=O)(=O)c2ccc(OC(F)(F)F)cc2)C1)NCC1CC1 [Example 40, (E)-N-(cyclopropylmethyl)-2-(1-(4-(trifluoromethoxy)phenylsulfonyl)piperidin-3-ylidene)acetamide]
pIC50: 6.16

CN(Cc1ccc(F)cc1)C(=O)C=C1CCN(S(=O)(=O)c2ccc(OC(F)(F)F)cc2)CC1 [Example 10, N-(4-fluorobenzyl)-N-methyl-2-(1-(4-(trifluoromethoxy)phenylsulfonyl)piperidin-4-ylidene)Acetamide]
pIC50: 6.79

COC(=O)C(NC(=O)C=C1CCN(S(=O)(=O)c2ccc(OC(F)(F)F)cc2)CC1)c1ccc(F)cc1 (centres unmarked) [Example 19, methyl 2-(4-fluorophenyl)-2-(2-(1-(4-(trifluoromethoxy)phenylsulfonyl)piperidin-4-ylidene)acetamido)Acetate]
pIC50: 6.06

CC(C)OCCNC(=O)C=C1CCN(S(=O)(=O)c2ccc(OC(F)(F)F)cc2)CC1 [Example 15, N-(2-isopropoxyethyl)-2-(1-(4-(trifluoromethoxy)phenylsulfonyl)piperidin-4-ylidene)Acetamide]
pIC50: 6.14

CC(C)(c1cccc(C(F)(F)F)c1)N1CCC(=CC(=O)NCC2CC2)CC1 [Example 31, N-(cyclopropylmethyl)-2-(1-(2-(3-(trifluoromethyl)phenyl)propan-2-yl)piperidin-4-ylidene)acetamide]
pIC50: 6.17

O=C(C=C1CCN(S(=O)(=O)c2ccc(OC(F)(F)F)cc2)CC1)NCc1ccccc1 [Example 3, N-benzyl-2-(1-(4-(trifluoromethoxy)phenylsulfonyl)piperidin-4-ylidene)Acetamide]
pIC50: 6.22

CO/C(=C\C1CN(S(=O)(=O)c2ccc(OC(F)(F)F)cc2)CCO1)C(=O)NC1CC1 (centres unmarked) [Example 44, (Z)—N-cyclopropyl-2-methoxy-3-(4-(4-(trifluoromethoxy)phenylsulfonyl)morpholin-2-yl)acrylamide]
pIC50: 6.07

N#Cc1ccc(CNC(=O)C=C2CCN(S(=O)(=O)c3ccc(OC(F)(F)F)cc3)CC2)cc1 [Example 11, N-(4-cyanobenzyl)-2-(1-(4-(trifluoromethoxy)phenylsulfonyl)piperidin-4-ylidene)Acetamide]
pIC50: 6.25

O=C(C=C1CCN(S(=O)(=O)c2ccc(OC(F)(F)F)cc2)CC1)NC(CO)c1ccc(F)cc1 (centres unmarked) [Example 20, N-(1-(4-fluorophenyl)-2-hydroxyethyl)-2-(1-(4-(trifluoromethoxy)phenylsulfonyl)piperidin-4-ylidene)acetamide]
pIC50: 6.09

O=C(/C=C1\CCCN(S(=O)(=O)c2ccc(OC(F)(F)F)cc2)C1)NC1CC1 [Example 41, (E)-N-cyclopropyl-2-(1-(4-(trifluoromethoxy)phenylsulfonyl)piperidin-3-ylidene)acetamide]
pIC50: 6.00

O=C(C=C1CCN(S(=O)(=O)c2ccc(OC(F)(F)F)cc2)CC1)NC1(c2ccc(F)cc2)CC1 [Example 12, N-(1-(4-fluorophenyl)cyclopropyl)-2-(1-(4-(trifluoromethoxy)phenylsulfonyl)piperidin-4-ylidene)Acetamide]
pIC50: 6.44

COC(C(=O)NCC1CC1)=C1CCN(S(=O)(=O)c2ccc(OC(F)(F)F)cc2)CC1 [Example 32, N-(cyclopropylmethyl)-2-methoxy-2-(1-(4-(trifluoromethoxy)phenylsulfonyl)piperidin-4-ylidene)acetamide]
pIC50: 6.04

O=C(C=C1CCN(S(=O)(=O)c2ccc(OC(F)(F)F)cc2)CC1)NCCC1CC1 [Example 13, N-(2-cyclopropylethyl)-2-(1-(4-(trifluoromethoxy)phenylsulfonyl)piperidin-4-ylidene)Acetamide]
pIC50: 6.61

O=C(C=C1CCN(S(=O)(=O)c2cccc(C(F)(F)F)c2)CC1)NCC1CC1 [Example 22, N-(cyclopropylmethyl)-2-(1-(3-(trifluoromethyl)phenylsulfonyl)piperidin-4-ylidene)acetamide]
pIC50: 6.08

CO/C(=C/C1CCN(S(=O)(=O)c2ccc(OC(F)(F)F)cc2)CC1)C(=O)NC1CC1 [Example 38, (E)-N-cyclopropyl-2-methoxy-3-(1-(4-(trifluoromethoxy)phenylsulfonyl)piperidin-4-yl)acrylamide]
pIC50: 6.08
